Laboratory results as given in patent publication US12528801B2 (Givaudan SA, priority 2019, dated 2026).

target: T1, hTRPM8 (Homo sapiens, UniProt Q7Z2W7); assay: Assay on TRPM8 modulators: calcium imaging (Fluo-4, Flexstation) in HEK293 cell line stably expressing hTRPM8; format: cell-based; settings: HEK293 cells stably expressing hTRPM8; calcium influx, Fluo-4, Flexstation 3; sigmoidal dose-response fit
T1 construct: expressed in transfected cells
Summary of the method: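 HEK293 cells stably expressing hTRPM8 were loaded with Fluo-4 AM plus probenecid and kept in HEPES buffer, pH 7.4. Calcium influx to serially diluted compounds was recorded for 120 s. Maximal activation was referenced to solvent control and 31.6 μM menthol, with EC values from sigmoidal dose-response fits.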

T1 sequence (Q7Z2W7 whole entry): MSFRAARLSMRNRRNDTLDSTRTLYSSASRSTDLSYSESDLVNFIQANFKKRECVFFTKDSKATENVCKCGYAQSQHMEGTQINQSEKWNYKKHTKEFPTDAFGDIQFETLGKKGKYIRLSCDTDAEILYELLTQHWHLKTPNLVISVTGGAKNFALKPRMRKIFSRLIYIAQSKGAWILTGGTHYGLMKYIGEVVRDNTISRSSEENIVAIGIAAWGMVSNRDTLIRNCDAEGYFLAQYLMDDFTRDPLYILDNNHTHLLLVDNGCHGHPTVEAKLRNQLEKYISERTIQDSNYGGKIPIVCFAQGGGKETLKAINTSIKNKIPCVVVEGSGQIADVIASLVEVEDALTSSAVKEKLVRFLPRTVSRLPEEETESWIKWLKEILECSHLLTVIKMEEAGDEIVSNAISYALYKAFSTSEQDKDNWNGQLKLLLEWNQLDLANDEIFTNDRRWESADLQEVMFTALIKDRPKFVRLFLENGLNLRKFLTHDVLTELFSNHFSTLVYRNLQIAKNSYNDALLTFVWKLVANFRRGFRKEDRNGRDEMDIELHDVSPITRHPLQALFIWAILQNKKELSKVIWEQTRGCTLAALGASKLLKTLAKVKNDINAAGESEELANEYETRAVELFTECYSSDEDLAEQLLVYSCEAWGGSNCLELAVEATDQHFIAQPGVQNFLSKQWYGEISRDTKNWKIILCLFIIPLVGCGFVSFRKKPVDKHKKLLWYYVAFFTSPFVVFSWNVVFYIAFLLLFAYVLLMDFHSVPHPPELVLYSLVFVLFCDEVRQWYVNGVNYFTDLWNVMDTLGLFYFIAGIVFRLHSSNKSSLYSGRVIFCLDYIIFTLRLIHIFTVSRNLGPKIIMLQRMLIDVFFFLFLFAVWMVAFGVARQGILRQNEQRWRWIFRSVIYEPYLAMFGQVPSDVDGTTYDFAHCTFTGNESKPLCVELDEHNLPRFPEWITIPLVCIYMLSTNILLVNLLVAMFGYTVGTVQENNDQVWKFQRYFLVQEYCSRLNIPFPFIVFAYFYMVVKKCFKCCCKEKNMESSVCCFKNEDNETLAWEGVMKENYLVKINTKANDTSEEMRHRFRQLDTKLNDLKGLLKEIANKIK

EC50 [nM]	Compound
1000 to 35000	COC(C)C(=O)N1CCCCC1c1nc(-c2ccccc2)c[nH]1 (centres unmarked) [Compound 159, 2-methoxy-1-(2-(4-phenyl-1H-imidazol-2-yl)piperidin-1-yl)propan-1-one]
50 to 300	COC(C)C(=O)N1CCCCC1c1ncc(-c2ccc(C)cc2)[nH]1 (centres unmarked) [Compound 160, 2-methoxy-1-(2-(5-(p-tolyl)-1H-imidazol-2-yl)piperidin-1-yl)propan-1-one]
50 to 300	CCC(C)C(=O)N1CCCCC1c1nc(-c2ccccc2)c[nH]1 (centres unmarked) [Compound 161, 2-methyl-1-(2-(4-phenyl-1H-imidazol-2-yl)piperidin-1-yl)butan-1-one]
300 to 1000	CC(C)C(=O)N1CCCCC1c1nc(-c2ccccc2)c[nH]1 (centres unmarked) [Compound 162, 2-methyl-1-(2-(4-phenyl-1H-imidazol-2-yl)piperidin-1-yl)propan-1-one]
< 50	CC[C@H](C)C(=O)N1CCCC[C@@H]1c1ncc(-c2ccc(C)cc2)[nH]1 [Compound 165, (S)-2-methyl-1-((R)-2-(5-(p-tolyl)-1H-imidazol-2-yl)piperidin-1-yl)butan-1-one]
50 to 300	CC(=O)C(C)C(=O)N1CCCCC1c1ncc(-c2ccc(C)cc2)[nH]1 (centres unmarked) [Compound 167, 2-methyl-1-(2-(5-(p-toly)-1H-imidazol-2-yl)piperidin-1-yl)butane-1,3-dione]
< 50	CCCC(C)C(=O)N1CCCCC1c1ncc(-c2ccc(C)cc2)[nH]1 (centres unmarked) [Compound 168, 2-methyl-1-(2-(5-(p-tolyl)-1H-imidazol-2-yl)piperidin-1-yl)pentan-1-one]
< 50	C=C(C)C(=O)N1CCCCC1c1ncc(-c2ccc(C)cc2)[nH]1 (centres unmarked) [Compound 169, 2-methyl-1-(2-(5-(p-tolyl)-1H-imidazol-2-yl)piperidin-1-yl)prop-2-en-1-one]
< 50	Cc1ccc(-c2cnc(C3CCCCN3C(=O)C(C)C)[nH]2)cc1 (centres unmarked) [Compound 170, 2-methyl-1-(2-(5-(p-tolyl)-1H-imidazol-2-yl)piperidin-1-yl)propan-1-one]
< 50	CSC(C)(C)C(=O)N1CCCCC1c1ncc(-c2ccc(C)cc2)[nH]1 (centres unmarked) [Compound 171, 2-methyl-2-(methylthio)-1-(2-(5-(p-tolyl)-1H-imidazol-2-yl)piperidin-1-yl)propan-1-one]
300 to 1000	CSCC(C)C(=O)N1CCCCC1c1nc(-c2ccccc2)c[nH]1 (centres unmarked) [Compound 172]
< 50	C=C(CC)C(=O)N1CCCCC1c1ncc(-c2ccc(C)cc2)[nH]1 (centres unmarked) [Compound 173, 2-methylene-1-(2-(5-(p-toly)-1H-imidazol-2-yl)piperidin-1-yl)butan-1-one]
50 to 300	CSC(C)C(=O)N1CCCCC1c1nc(-c2cccc(C#N)c2)c[nH]1 (centres unmarked) [Compound 174, 3-(2-(1-(2-(methylthio)propanoyl)piperidin-2-yl)-1H-imidazol-4-yl)benzonitrile]
50 to 300	CC(C(=O)N1CCCCC1c1nc(-c2ccccc2)c[nH]1)C(F)(F)F (centres unmarked) [Compound 175, 3,3,3-trifluoro-2-methyl-1-(2-(4-phenyl-1H-imidazol-2-yl)piperidin-1-yl)propan-1-one]
1000 to 35000	O=C(CC(F)(F)C(F)(F)F)N1CCCCC1c1nc(-c2ccccc2)c[nH]1 (centres unmarked) [Compound 176, 3,3,4,4,4-pentafluoro-1-(2-(4-phenyl-1H-imidazol-2-yl)piperidin-1-yl)butan-1-one]
1000 to 35000	CC(F)(F)CC(=O)N1CCCCC1c1nc(-c2ccccc2)c[nH]1 (centres unmarked) [Compound 177, 3,3-difluoro-1-(2-(4-phenyl-1H-imidazol-2-yl)piperidin-1-yl)butan-1-one]
< 50	CSC(C)C(=O)N1CCCCC1c1ncc(-c2ccc(C#N)cc2F)[nH]1 (centres unmarked) [Compound 178, 3-fluoro-4-(2-(1-(2-(methylthio)propanoyl)piperidin-2-yl)-1H-imidazol-5-yl)benzonitrile]
1000 to 35000	CC(C)=CC(=O)N1CCCCC1c1nc(-c2ccccc2)c[nH]1 (centres unmarked) [Compound 179, 3-methyl-1-(2-(4-phenyl-1H-imidazol-2-yl)piperidin-1-yl)but-2-en-1-one]
1000 to 35000	CC(C)CC(=O)N1CCCCC1c1nc(-c2ccccc2)c[nH]1 (centres unmarked) [Compound 180, 3-methyl-1-(2-(4-phenyl-1H-imidazol-2-yl)piperidin-1-yl)butan-1-one]
< 50	CSC(C)C(=O)N1CCCCC1c1nc(-c2ccc(C#N)cc2)c[nH]1 (centres unmarked) [Compound 181, 4-(2-(1-(2-(methylthio)propanoyl)piperidin-2-yl)-1H-imidazol-4-yl)benzonitrile]
< 50	CSC(C)C(=O)N1CCCCC1c1ncc(-c2ccc(C=O)cc2)[nH]1 (centres unmarked) [Compound 182, 4-(2-(1-(2-(methylthio)propanoyl)piperidin-2-yl)-1H-imidazol-5-yl)benzaldehyde]
300 to 1000	CC(CC(F)(F)F)C(=O)N1CCCCC1c1nc(-c2ccccc2)c[nH]1 (centres unmarked) [Compound 183, 4,4,4-trifluoro-2-methyl-1-(2-(4-phenyl-1H-imidazol-2-yl)piperidin-1-yl)butan-1-one]

EC50 [nM]	Compound
300 to 1000	O=C(N1CCCCC1c1nc(-c2ccccc2)c[nH]1)C12CC(C1)C2 (centres unmarked) [Compound 184, bicyclo[1.1.1]pentan-1-yl(2-(4-phenyl-1H-imidazol-2-yl)piperidin-1-yl)methanone]
300 to 1000	O=C(C1CCC1)N1CCCCC1c1ncc(-c2cccc(F)c2)[nH]1 (centres unmarked) [Compound 185, cyclobutyl(2-(5-(3-fluorophenyl)-1H-imidazol-2-yl)piperdin-1-yl)methanone]
300 to 1000	O=C(C1CCCC1)N1CCCCC1c1nc(-c2ccccc2)c[nH]1 (centres unmarked) [Compound 186, cyclopentyl(2-(4-phenyl-1H-imidazol-2-yl)piperidin-1-yl)methanone]
1000 to 35000	O=C(C1CC1)N1CCCCC1c1nc(-c2ccccc2)c[nH]1 (centres unmarked) [Compound 187, cyclopropyl(2-(4-phenyl-1H-imidazol-2-yl)piperidin-1-yl)methanone]
50 to 300	COC(=O)c1ccc(-c2cnc(C3CCCCN3C(=O)C(C)SC)[nH]2)cc1 (centres unmarked) [Compound 188, methyl 4-(2-(1-(2-(methylthio)propanoyl)piperidin-2-yl)-1H-imidazol-5-yl)benzoate]
1000 to 35000	CSC(C)C(=O)N1CCCCC1c1nc(-c2ccc(S(=O)(=O)NCCO)cc2)c[nH]1 (centres unmarked) [Compound 189, N-(2-hydroxyethyl)-4-(2-(1-(2-(methylthio)propanoyl)piperidin-2-yl)-1H-imidazol-4-yl)benzenesulfonamide]
< 50	CSC(C)C(=O)N1CCCCC1c1ncc(-c2cccc([N+](=O)[O-])c2)[nH]1 (centres unmarked) [Compound 190, 2-(methylthio)-1-(2-(5-(3-nitrophenyl)-1H-imidazol-2-yl)piperidin-1-yl)propan-1-one]
1000 to 35000	CSC(C)C(=O)N1CCCCC1c1nc(-c2ccc(NS(C)(=O)=O)cc2)c[nH]1 (centres unmarked) [Compound 191, N-(4-(2-(1-(2-(methylthio)propanoyl)piperidin-2-yl)-1H-imidazol-4-yl)phenyl)methanesulfonamide]
< 50	CSC(C)C(=O)N1CCCCC1c1ncc(-c2ccc([N+](=O)[O-])cc2)[nH]1 (centres unmarked) [Compound 192, 2-(methylthio)-1-(2-(5-(4-nitrophenyl)-1H-imidazol-2-yl)piperidin-1-yl)propan-1-one]
< 50	Cc1ccc(-c2cnc(C3CCCCN3C(=O)C3CC3(C)C)[nH]2)cc1 (centres unmarked) [Compound 193, (2,2-dimethylcyclopropyl)(2-(5-(p-toly)-1H-imidazol-2-yl)piperidin-1-yl)methanone]
1000 to 35000	CCC(C)C(=O)N1CCCCC1c1ncc(Br)[nH]1 (centres unmarked) [Compound 194, 1-(2-(5-bromo-1H-imidazol-2-yl)piperidin-1-yl)-2-methylbutan-1-one]
< 50	CCC(C)C(=O)N1CCCCC1c1ncc(-c2ccc(Cl)cc2)[nH]1 (centres unmarked) [Compound 195, 1-(2-(5-(4-chlorophenyl)-1H-imidazol-2-yl)piperidin-1-yl)-2-methylbutan-1-one]
< 50	CSC(C)C(=O)N1CCCCC1c1ncc(-c2ccc(CC#N)cc2)[nH]1 (centres unmarked) [Compound 196, 2-(4-(2-(1-(2-(methylthio)propanoyl)piperidin-2-yl)-1H-imidazol-5-yl)phenyl)acetonitrile]
< 50	CCC(C)C(=O)N1CCCCC1c1ncc(-c2ccc(CC#N)cc2)[nH]1 (centres unmarked) [Compound 197, 2-(4-(2-(1-(2-methylbutanoyl)piperidin-2-yl)-1H-imidazol-5-yl)phenyl)acetonitrile]
< 50	CCC(C)C(=O)N1CCCCC1c1ncc(-c2ccc(C#N)cc2)[nH]1 (centres unmarked) [Compound 198]
< 50	Cc1ccc(-c2cnc(C3CCCCN3C(=O)C(C)C(C)C)[nH]2)cc1 (centres unmarked) [Compound 199, 2,3-dimethyl-1-(2-(5-(p-tolyl)-1H-imidazol-2-yl)piperidin-1-yl)butan-1-one]
50 to 300	CCC(C)C(=O)N1CCCCC1c1ncc(-c2ccccc2C)[nH]1 (centres unmarked) [Compound 200, 2-methyl-1-(2-(5-(o-tolyl)-1H-imidazol-2-yl)piperidin-1-yl)butan-1-one]
50 to 300	CCC(C)C(=O)N1CCCCC1c1ncc(-c2cccc(C)c2)[nH]1 (centres unmarked) [Compound 201, 2-methyl-1-(2-(5-(m-tolyl)-1H-imidazol-2-yl)piperidin-1-yl)butan-1-one]
50 to 300	CCC(C)C(=O)N1CCCCC1c1ncc(-c2ccc(CO)cc2)[nH]1 (centres unmarked) [Compound 202, 1-(2-(5-(4-(hydroxymethyl)phenyl)-1H-imidazol-2-yl)piperidin-1-yl)-2-methylbutan-1-one]
300 to 1000	Cc1ccc(-c2cnc(C3CCCCN3S(=O)(=O)C(C)C)[nH]2)cc1 (centres unmarked) [Compound 203, 1-(isopropylsulfonyl)-2-(5-(p-tolyl)-1H-imidazol-2-yl)piperidine]
1000 to 35000	CCC(C)S(=O)(=O)N1CCCCC1c1ncc(-c2ccc(C)cc2)[nH]1 (centres unmarked) [Compound 204, 1-(sec-butylsulfonyl)-2-(5-(p-tolyl)-1H-imidazol-2-yl)piperidine]
< 50	CCC(C)C(=O)N1CCCCC1c1ncc(-c2ccc(C)s2)[nH]1 (centres unmarked) [Compound 205, 2-methyl-1-(2-(5-(5-methylthiophen-2-yl)-1H-imidazol-2-yl)piperidin-1-yl)butan-1-one]
